From patent US20230181657A1, “NOVEL LACTIC ACID BACTERIA AND USE THEREOF” (UNIVERSITY- INDUSTRY COOPERATION GROUP OF KYUNG HEE …, priority 2018, published 2023)

Legend:
Format in all cases: in vivo
PGC-1α = PGC-1α expression in liver by qPCR, ovariectomized obesity model; conditions: liver mRNA, qPCR in comparison with β-actin; mice with removed ovaries; bacteria 1×10^9 CFU orally, PC 10 μg/kg/day intraperitoneally; Nor 1.0 ± 0.1, Con 0.6 ± 0.2
Method: (§1) An experiment was performed by using six C57BL/6 mice (female, 21-23 g and 6 weeks old) per group after being acclimated in a laboratory for one week as described above in (1) of Example 2. After the mice were anesthetized with isoflurane and the ovaries were removed therefrom, the resulting mice were raised for six weeks so as to create an animal model with obesity, showing a significant weight gain. From one week after ovarian removal, Lactobacillus plantarum NK3, Bifidobacterium longum NK49, a 1:1 mixture thereof, or a 4:1 mixture thereof, which is a novel lactic acid bacterium, was orally administered in a daily amount of 1×10^9 CFU for six days a week for five weeks. In addition, 17β-estradiol (PC) was intraperitoneally administered at 10 μg/kg/day to the experimental animals of the positive control group, and the sham group and the experimental group with removed ovaries were orally dosed with physiological saline solution instead of drugs. […] The body weight was measured once a week. An expression of sterol regulatory element-binding transcription factor 1c (SREBP-1c) and peroxisome proliferator-activated receptor gamma coactivator 1-alpha (PGC-1α) was measured by using a quantitative reverse transcription polymerase chain reaction (qPCR). […] The amount of final expressed genes was calculated in comparison with β-actin.

[1] = system: animal model with osteoporosis (C57BL/6 mice with removed ovaries); assay: Osteoporosis indices in blood (AP activity, Ca, P, osteocalcin) of ovariectomized mice; conditions: bacteria 1×10^9 CFU orally for five weeks
Method: An experiment was performed by using six C57BL/6 mice (female, 21-23 g and 6 weeks old) per group after being acclimated in a laboratory for one week. After the mice were anesthetized with isoflurane, the ovaries were removed therefrom to create an animal model with osteoporosis. From one week after ovarian removal, Lactobacillus plantarum NK3, Bifidobacterium longum NK49, a 1:1 mixture thereof, or a 4:1 mixture thereof (a ratio of LP:BL is 4:1 and the same as below), which is a novel lactic acid bacterium, was orally administered in a daily amount of 1×10^9 CFU for six days a week for five weeks. In addition, 17β-estradiol (PC) was intraperitoneally administered at 10 μg/kg/day to the experimental animals of the positive control group, and the sham group and the experimental group with removed ovaries were orally dosed with physiological saline solution instead of drugs.
On the day after the administration of lactic acid bacteria was completed, the experimental animals were sacrificed, and then blood, thighbone, colon, womb, and liver were separated therefrom so as to measure osteoporosis indices.
Osteocalcin in blood was measured with R&D system ELISA Kit (Minneapolis, Minn., USA); Ca and P were measured with ASAN Ca-Lq Reagents and ASAN Pi-Lq Reagents of Asan Pharmaceutical Co., Ltd, respectively; and alkaline phosphatase (AP) activity was measured with Alkaline phosphatase activity colorimetric assay kit (Sigma, USA).

SREBP-1c = SREBP-1c expression in liver by qPCR, ovariectomized obesity model; conditions: liver mRNA, qPCR in comparison with β-actin; mice with removed ovaries; bacteria 1×10^9 CFU orally, PC 10 μg/kg/day intraperitoneally; Nor 1.0 ± 0.1, Con 4.5 ± 0.5
Method: as §1

Compound: C[C@]12CC[C@@H]3c4ccc(O)cc4CC[C@H]3[C@@H]1CC[C@@H]2O [PC, 17β-estradiol]
- PGC-1α expression (PGC-1α): 0.8 ± 0.2
- Osteocalcin in blood ([1]; PC 10 μg/kg/day intraperitoneally, Con 1.85 ± 0.32): 1.53 ± 0.15 µg/L
- Ca in blood ([1]; PC 10 μg/kg/day intraperitoneally, Con 6.4 ± 0.4): 6.2 ± 0.2 mg/dL
- P in blood ([1]; PC 10 μg/kg/day intraperitoneally, Con 12.5 ± 1.5): 12.1 ± 1.1 mg/dL
- AP (alkaline phosphatase activity in blood) ([1]; PC 17β-estradiol 10 μg/kg/day intraperitoneally, Con 282.2 ± 10.3): 220.6 ± 10.3 IU/L
- SREBP-1c expression (SREBP-1c): 2.7 ± 0.3
